IC50 data for 1 compound are collected here from ChEMBL document CHEMBL3425433, “Discovery of bicyclic pyrazoles as class III histone deacetylase SIRT1 and SIRT2 inhibitors” (Bioorg Med Chem Lett, 2015).

One may read the IC50 as the concentration that gives 50% inhibition. Read a high IC50 as a need for much substance.

The target in one assay is T1, Histone deacetylase 8 (Homo sapiens, UniProt Q9BY41).
T1 sequence (Q9BY41 whole entry): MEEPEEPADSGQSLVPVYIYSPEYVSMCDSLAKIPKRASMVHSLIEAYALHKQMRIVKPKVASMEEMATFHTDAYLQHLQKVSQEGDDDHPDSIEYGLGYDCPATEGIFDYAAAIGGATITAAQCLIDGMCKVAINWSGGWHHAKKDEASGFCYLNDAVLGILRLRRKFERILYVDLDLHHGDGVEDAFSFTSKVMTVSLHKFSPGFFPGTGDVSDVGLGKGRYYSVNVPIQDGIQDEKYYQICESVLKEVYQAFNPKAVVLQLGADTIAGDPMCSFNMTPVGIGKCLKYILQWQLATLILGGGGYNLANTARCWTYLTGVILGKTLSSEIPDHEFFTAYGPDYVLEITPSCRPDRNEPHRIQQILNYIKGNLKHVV
Put plainly: Inhibition of HDAC8 (unknown origin).

Assay [1] deals with T2, Protein deacetylase HDAC6 (Homo sapiens, UniProt Q9UBN7).
T2 sequence (Q9UBN7 whole entry): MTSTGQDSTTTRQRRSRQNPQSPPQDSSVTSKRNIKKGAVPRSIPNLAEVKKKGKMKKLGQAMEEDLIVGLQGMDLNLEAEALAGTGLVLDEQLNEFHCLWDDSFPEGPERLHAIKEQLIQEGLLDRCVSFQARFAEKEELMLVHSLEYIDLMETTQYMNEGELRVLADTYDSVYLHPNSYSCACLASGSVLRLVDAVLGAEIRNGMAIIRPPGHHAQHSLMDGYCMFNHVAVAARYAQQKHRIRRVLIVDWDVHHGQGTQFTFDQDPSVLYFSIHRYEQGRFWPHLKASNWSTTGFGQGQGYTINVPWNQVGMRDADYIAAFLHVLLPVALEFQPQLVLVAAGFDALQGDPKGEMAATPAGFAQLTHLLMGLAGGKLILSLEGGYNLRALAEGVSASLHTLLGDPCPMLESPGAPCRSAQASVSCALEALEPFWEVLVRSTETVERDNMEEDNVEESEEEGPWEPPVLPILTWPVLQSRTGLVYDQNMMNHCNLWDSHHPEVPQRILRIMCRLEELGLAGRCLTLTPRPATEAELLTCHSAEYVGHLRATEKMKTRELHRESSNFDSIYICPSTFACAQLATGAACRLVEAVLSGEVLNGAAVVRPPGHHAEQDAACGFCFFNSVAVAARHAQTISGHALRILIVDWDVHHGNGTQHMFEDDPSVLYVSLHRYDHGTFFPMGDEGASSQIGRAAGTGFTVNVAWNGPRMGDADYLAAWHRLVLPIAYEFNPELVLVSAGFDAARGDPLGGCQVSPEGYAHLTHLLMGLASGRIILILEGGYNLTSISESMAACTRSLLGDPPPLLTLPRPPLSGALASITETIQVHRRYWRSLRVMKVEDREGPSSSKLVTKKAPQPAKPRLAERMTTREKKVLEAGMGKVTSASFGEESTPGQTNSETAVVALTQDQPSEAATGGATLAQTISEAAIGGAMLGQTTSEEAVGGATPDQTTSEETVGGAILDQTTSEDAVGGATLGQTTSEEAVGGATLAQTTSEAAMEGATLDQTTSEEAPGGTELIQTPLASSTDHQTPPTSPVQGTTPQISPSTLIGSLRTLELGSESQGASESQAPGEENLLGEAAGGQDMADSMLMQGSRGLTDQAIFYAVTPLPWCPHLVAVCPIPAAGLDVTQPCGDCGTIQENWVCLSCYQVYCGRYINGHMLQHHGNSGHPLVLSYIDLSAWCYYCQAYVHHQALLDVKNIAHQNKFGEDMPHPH
Put plainly: Inhibition of HDAC6 (unknown origin).

Take `NC(=O)C1CCCc2c(-c3ccc(Cl)c(Cl)c3)n[nH]c21` (racemic): the concentration for half-maximal inhibition (IC50) (against Histone deacetylase 8; in assay [1]) was more than 10 µM each time.
